Data: PubChem BioAssay (NCI)
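Compound exposure: 48 hours, 5 concentrations, 96-well plates. TGI marks complete inhibition of growth.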

Legend:
Experiment in all cases: DTP human tumour cell line panel, 48 h
SNB-75 CNS = test system: SNB-75 CNS
CAKI-1 renal = test system: CAKI-1 renal
ACHN renal = test system: ACHN renal
HOP-62 NSCLC = test system: HOP-62 NSCLC
EKVX NSCLC = test system: EKVX NSCLC
OVCAR-3 ovarian = test system: OVCAR-3 ovarian
SK-MEL-2 melanoma = test system: SK-MEL-2 melanoma
SNB-19 CNS = test system: SNB-19 CNS
SR leukemia = test system: SR leukemia
786-0 renal = test system: 786-0 renal
NCI-H23 lung = test system: NCI-H23 lung
BT-549 breast = test system: BT-549 breast
SF-295 CNS = test system: SF-295 CNS
NCI-H522 lung = test system: NCI-H522 lung
DU-145 prostate = test system: DU-145 prostate
HCC-2998 colon = test system: HCC-2998 colon
SF-539 CNS = test system: SF-539 CNS
OVCAR-4 ovarian = test system: OVCAR-4 ovarian
MOLT-4 leukemia = test system: MOLT-4 leukemia
MDA-N = test system: MDA-N

Structure (SMILES)	TGI (SNB-75 CNS)	TGI (CAKI-1 renal)	TGI (ACHN renal)	TGI (HOP-62 NSCLC)	TGI (EKVX NSCLC)	TGI (OVCAR-3 ovarian)	TGI (SK-MEL-2 melanoma)	TGI (SNB-19 CNS)	TGI (SR leukemia)	TGI (786-0 renal)	TGI (NCI-H23 lung)	TGI (BT-549 breast)	TGI (SF-295 CNS)	TGI (NCI-H522 lung)	TGI (DU-145 prostate)	TGI (HCC-2998 colon)	TGI (SF-539 CNS)	TGI (OVCAR-4 ovarian)	TGI (MOLT-4 leukemia)	TGI (MDA-N)
CC(C)=C1C(=O)C[C@]2(C)C/C=C(\C)CC/C=C(\C)CC[C@@H]12	20.2 µM	15.1 µM	16.4 µM	18.5 µM	32.5 µM	18.1 µM	15.8 µM	> 50 µM	28.3 µM	16.7 µM	23.9 µM	24.8 µM	31.3 µM	13.9 µM	> 50 µM	14.9 µM	15.8 µM	45.6 µM	18.2 µM	–
CCOC(=O)[C@H](Cc1ccccc1)NC(=O)c1nc[nH]c1[N+](=O)[O-]	> 100 µM	> 100 µM	> 100 µM	> 100 µM	> 100 µM	> 100 µM	> 100 µM	> 100 µM	> 100 µM	> 100 µM	> 100 µM	–	> 100 µM	> 100 µM	–	> 100 µM	> 100 µM	> 100 µM	> 100 µM	–
CC(C)(C)OC(=O)N1C[C@H](CC(=O)OCc2ccccc2)C[C@H]1C(=O)OCC(Cl)(Cl)Cl	> 50 µM	> 50 µM	> 50 µM	> 50 µM	> 50 µM	32.9 µM	23 µM	> 50 µM	15.7 µM	> 50 µM	> 50 µM	> 50 µM	> 50 µM	13.6 µM	> 50 µM	45.3 µM	> 50 µM	> 50 µM	3.36 µM	–
O=C1OC(C2Cc3cc4c(cc3C2=O)CCC4)c2ccccc21 (stereo not given)	> 100 µM	> 100 µM	> 100 µM	> 100 µM	> 100 µM	> 100 µM	> 100 µM	> 100 µM	> 100 µM	> 100 µM	> 100 µM	–	> 100 µM	> 100 µM	> 100 µM	98.7 µM	80.4 µM	> 100 µM	64.4 µM	> 100 µM
CSc1nc(C)cc(N(C)c2ccccc2)n1	94.3 µM	> 100 µM	> 100 µM	> 100 µM	> 100 µM	97.3 µM	> 100 µM	> 100 µM	60.7 µM	> 100 µM	95.3 µM	–	> 100 µM	> 100 µM	> 100 µM	> 100 µM	66 µM	> 100 µM	> 100 µM	61.3 µM
OCC1C(O)C(O)[C@@H]2SCCN12 (stereo not given in full)	> 100 µM	> 100 µM	> 100 µM	> 100 µM	> 100 µM	> 100 µM	> 100 µM	> 100 µM	> 100 µM	> 100 µM	> 100 µM	> 100 µM	> 100 µM	> 100 µM	> 100 µM	> 100 µM	–	> 100 µM	> 100 µM	–
COC(=O)C(CCC1(C)OCCO1)C(C)=O (stereo not given)	> 100 µM	–	> 100 µM	> 100 µM	> 100 µM	> 100 µM	> 100 µM	> 100 µM	> 100 µM	> 100 µM	> 100 µM	–	> 100 µM	> 100 µM	–	> 100 µM	> 100 µM	> 100 µM	> 100 µM	–
CC(=O)Oc1ccn2nc(C)c(Cc3c(C)nn4ccc(OC(C)=O)cc34)c2c1	> 100 µM	> 100 µM	> 100 µM	> 100 µM	> 100 µM	> 100 µM	> 100 µM	> 100 µM	> 100 µM	> 100 µM	> 100 µM	–	68.8 µM	> 100 µM	> 100 µM	–	> 100 µM	> 100 µM	> 100 µM	> 10 µM
Cc1ccc(/C=C/C(=O)c2sc(C(N)=S)nc2C)cc1	> 100 µM	> 100 µM	> 100 µM	> 100 µM	> 100 µM	> 100 µM	> 100 µM	–	–	> 100 µM	> 100 µM	–	> 100 µM	> 100 µM	–	> 100 µM	> 100 µM	–	> 100 µM	–
COC(=O)C(C(=O)C(=O)Nc1c(Cl)cc([N+](=O)[O-])cc1Cl)c1nc2cc(C)c(C)cc2[nH]c1=O (stereo not given)	> 100 µM	> 100 µM	> 100 µM	> 100 µM	> 100 µM	> 100 µM	> 100 µM	> 100 µM	–	> 100 µM	> 100 µM	–	> 100 µM	> 100 µM	–	> 100 µM	> 100 µM	> 100 µM	> 100 µM	–
COc1ccc(C2Cc3cc(OC)c(OC)c(OC)c3C2=O)cc1 (stereo not given)	> 100 µM	> 100 µM	> 100 µM	> 100 µM	> 100 µM	> 100 µM	> 100 µM	> 100 µM	–	> 100 µM	> 100 µM	–	> 100 µM	–	–	> 100 µM	> 100 µM	> 100 µM	> 100 µM	–
COc1ccc(NC(=O)CSc2nnc(Cc3ccccc3)o2)cc1	> 100 µM	> 100 µM	> 100 µM	> 100 µM	–	> 100 µM	> 100 µM	> 100 µM	–	> 100 µM	> 100 µM	–	> 100 µM	> 100 µM	–	> 100 µM	> 100 µM	> 100 µM	> 100 µM	–
CC(C)=CCC/C(C)=C/CC/C(C)=C/[C@@H]1[C@@H](CO)[C@]1(C)CC/C=C(\C)CCC=C(C)C	> 100 µM	> 100 µM	31.5 µM	> 100 µM	48.2 µM	> 100 µM	> 100 µM	> 100 µM	55 µM	42.9 µM	> 100 µM	> 100 µM	> 100 µM	32.7 µM	> 100 µM	–	59 µM	> 100 µM	> 100 µM	–
CC(=O)N(/N=C\c1ccc([N+](=O)[O-])cc1)c1ccccc1	> 100 µM	> 100 µM	> 100 µM	> 100 µM	> 100 µM	> 100 µM	> 100 µM	> 100 µM	–	> 100 µM	> 100 µM	–	> 100 µM	–	–	> 100 µM	> 100 µM	> 100 µM	–	–
CNC(=S)NNC(=O)c1c(C)nc2sccn12	–	> 100 µM	> 100 µM	> 100 µM	> 100 µM	> 100 µM	> 100 µM	> 100 µM	> 100 µM	> 100 µM	> 100 µM	–	> 100 µM	> 100 µM	–	> 100 µM	> 100 µM	–	> 100 µM	–
Nn1c(-c2ccccc2Nc2ccccc2-c2n[nH]c(=S)n2N)n[nH]c1=S	> 50 µM	–	> 50 µM	> 50 µM	> 50 µM	> 50 µM	> 50 µM	> 50 µM	> 50 µM	> 50 µM	> 50 µM	> 50 µM	> 50 µM	> 50 µM	> 50 µM	> 50 µM	> 50 µM	> 50 µM	> 50 µM	–
C=CC1(c2ccc(Cl)c(Cl)c2)OCCO1	55.2 µM	–	> 100 µM	22.8 µM	> 100 µM	> 100 µM	> 100 µM	> 100 µM	> 100 µM	> 100 µM	> 100 µM	–	> 100 µM	> 100 µM	> 100 µM	> 100 µM	–	> 100 µM	> 100 µM	> 100 µM
C/C(=C/CNc1ncnc2c1ncn2CCC(=O)O)CO	> 100 µM	> 100 µM	> 100 µM	> 100 µM	> 100 µM	> 100 µM	–	> 100 µM	> 100 µM	> 100 µM	> 100 µM	–	> 100 µM	> 100 µM	> 100 µM	> 100 µM	> 100 µM	> 100 µM	> 100 µM	> 100 µM
O=S1(=O)COc2ccccc2-c2ncncc21	> 100 µM	> 100 µM	> 100 µM	> 100 µM	> 100 µM	> 100 µM	–	> 100 µM	> 100 µM	> 100 µM	> 100 µM	–	> 100 µM	> 100 µM	–	> 100 µM	> 100 µM	> 100 µM	> 100 µM	–
Cn1c(=O)c2c(ncn2CCCCn2ccnc2[N+](=O)[O-])n(C)c1=O	> 100 µM	–	> 100 µM	> 100 µM	> 100 µM	> 100 µM	> 100 µM	> 100 µM	> 100 µM	> 100 µM	> 100 µM	–	> 100 µM	> 100 µM	–	–	> 100 µM	> 100 µM	> 100 µM	–
N#Cc1ccc(Nc2cnc3cc(N)ccc3n2)cc1	> 100 µM	> 100 µM	> 100 µM	> 100 µM	> 100 µM	> 100 µM	> 100 µM	> 100 µM	> 100 µM	> 100 µM	> 100 µM	–	> 100 µM	> 100 µM	–	> 100 µM	> 100 µM	> 100 µM	> 100 µM	–
COC1=C(C)C(=O)C2C(C1=O)C(c1ccc(OC)c(OC)c1)[C@H]2C (stereo not given in full)	> 100 µM	> 100 µM	> 100 µM	> 100 µM	> 100 µM	> 100 µM	> 100 µM	> 100 µM	> 100 µM	> 100 µM	> 100 µM	–	> 100 µM	> 100 µM	–	> 100 µM	> 100 µM	> 100 µM	> 100 µM	–
CC1=NN(c2cccc(Cl)c2)C(=N/c2nc3ccccc3s2)/C1=C\C=C\c1ccccc1	–	> 100 µM	88.2 µM	> 100 µM	> 100 µM	78.9 µM	–	–	25.9 µM	> 100 µM	> 100 µM	–	> 100 µM	92.3 µM	> 100 µM	–	> 100 µM	> 100 µM	3.48 µM	> 100 µM
CCOC(=O)CSc1[nH]c2nc(C)nc(Cl)c2c1C#N	> 10 µM	> 10 µM	–	> 10 µM	> 10 µM	–	–	–	> 10 µM	> 10 µM	> 10 µM	–	> 10 µM	–	> 10 µM	> 10 µM	–	> 10 µM	> 10 µM	> 10 µM
CSc1sc(C)cc1-c1nsc(=O)o1	–	> 100 µM	> 100 µM	–	> 100 µM	–	–	> 100 µM	> 100 µM	> 100 µM	> 100 µM	–	> 100 µM	> 100 µM	> 100 µM	> 100 µM	–	> 100 µM	> 100 µM	> 100 µM
CN(C)C(=O)c1nnsc1NN=O	> 100 µM	> 100 µM	> 100 µM	> 100 µM	> 100 µM	> 100 µM	> 100 µM	> 100 µM	> 100 µM	> 100 µM	> 100 µM	–	> 100 µM	> 100 µM	> 100 µM	> 100 µM	–	> 100 µM	> 100 µM	> 100 µM
CSc1nc2nc(C)c(C)nc2c(=O)[nH]1	> 100 µM	> 100 µM	> 100 µM	> 100 µM	> 100 µM	> 100 µM	> 100 µM	> 100 µM	> 100 µM	> 100 µM	> 100 µM	–	> 100 µM	> 100 µM	–	> 100 µM	–	> 100 µM	> 100 µM	–
O=C(CC(=O)C(=O)CC(=O)OCc1ccccc1)OCc1ccccc1	> 100 µM	> 100 µM	–	> 100 µM	> 100 µM	–	> 100 µM	> 100 µM	> 100 µM	> 100 µM	> 100 µM	–	–	> 100 µM	–	> 100 µM	> 100 µM	> 100 µM	> 100 µM	–
